Assay results reported in patent US20070049564A1 (Wyeth, priority 2005, published 2007).
Values after ≈ are worked out from the molar mass of the structure shown. Where two headings read alike, the source gives them in different places.

What was measured:
E. coli GC 2236 = experiment: MIC, broth microdilution; details: Escherichia coli, GC2236, E. coli GC 2236
E. coli GC 2233 = experiment: MIC, broth microdilution; details: Escherichia coli, GC2233, E. coli GC 2233
Procedure: Antimicrobial susceptibility testing. The in vitro activities of the antibiotics are determined by the broth microdilution method as recommended by the National Committee for Clinical Laboratory Standards (NCCLS) (1). Mueller-Hinton II broth (MHBII)(BBL Cockeysville, Md.) is the medium employed in the testing procedures. Microtiter plates containing serial dilutions of each antimicrobial agent are inoculated with each organism to yield the appropriate density (10^5 CFU/ml) in a 100 μl final volume. The plates are incubated for 18-22 hours at 35° C. in ambient air.
Representative compounds were first incubated in mouse serum for an hour prior to the in vitro testing against a panel of selected gram-positive and gram-negative bacteria strains. All compounds were also pre-incubated in water for an hour prior to testing as control.

E. coli GC 2234 = experiment: MIC, broth microdilution; details: Escherichia coli, GC2234, E. coli GC 2234
E. coli GC 2272 = experiment: MIC, broth microdilution; details: Escherichia coli, GC2272, E. coli GC 2272
E. coli GC 6465 = experiment: MIC, broth microdilution; details: Escherichia coli, GC6465, E. coli GC 6465
E. coli GC 1073 = experiment: MIC, broth microdilution; details: Escherichia coli, GC1073, E. coli GC 1073
S. aureus GC 1131 = experiment: MIC, broth microdilution; details: Staphylococcus aureus, GC1131, S. aureus GC 1131
S. aureus GC 6466 = experiment: MIC, broth microdilution; details: Staphylococcus aureus, GC6466, S. aureus GC 6466
S. aureus GC 1079 = experiment: MIC, broth microdilution; details: Staphylococcus aureus, GC1079, S. aureus GC 1079
S. aureus GC 4536 = experiment: MIC, broth microdilution; details: Staphylococcus aureus, GC4536, S. aureus GC 4536
S. aureus GC 6469 = experiment: MIC, broth microdilution; details: Staphylococcus aureus, GC6469, S. aureus GC 6469
S. epidermidis GC 4935 = experiment: MIC, broth microdilution; details: Staphylococcus epidermidis, GC4935, S. epidermidis GC 4935
E. faecalis GC 4555 = experiment: MIC, broth microdilution; details: Enterococcus faecalis, GC4555, E. faecalis GC 4555
E. faecalis GC 2265 = experiment: MIC, broth microdilution; details: Enterococcus faecalis, GC2265, E. faecalis GC 2265
E. faecium GC 2243 = experiment: MIC, broth microdilution; details: Enterococcus faecium, GC2243, E. faecium GC 2243
S. pneumoniae+ GC 4465 = experiment: MIC, broth microdilution; details: Streptococcus pneumoniae, S. pneumoniae+ GC 4465
S. pyogenes GC 4563 = experiment: MIC, broth microdilution; details: Streptococcus pyogenes, GC4563, S. pyogenes GC 4563
c. albicans GC 3066 = experiment: MIC, broth microdilution
E. coli = experiment: Range of MIC for E. coli strains; details: Escherichia coli
Staph. = experiment: Range of MIC for Staph. strains, including MRSA; details: Staphylococcus aureus, MRSA
[1] = c. albicans GC 3066, Water pre-incubation
[2] = 20 h, read-out: Range of MIC, E. coli (Mouse Serum)
[3] = read-out: Minimum inhibitory concentration (MIC), E. coli (mouse serum)
[4] = read-out: Minimum inhibitory concentration (MIC), E. coli (water)
[5] = read-out: Range of MIC, E. coli (Water)
[6] = read-out: Minimum inhibitory concentration (MIC), Staph. (mouse serum)
[7] = read-out: Minimum inhibitory concentration (MIC), Staph. (water)
[8] = read-out: Range of MIC, Staph (Mouse Serum)
[9] = read-out: Range of MIC, Staph (Water)

Question: How did the MIC (E. coli GC 2236; Mouse Serum pre-incubation) turn out when `CCCCN(CC(=O)Nc1cc(N(C)C)c2c(c1O)C(=O)C1=C(O)[C@]3(O)C(=O)C(C(N)=O)=C(O)[C@@H](N(C)C)[C@@H]3C[C@@H]1C2)C(=O)OCOC(=O)Cc1ccccc1` [Example 12, ({[(2-{[(5aR,6aS,7S,10aS)-9-(aminocarbonyl)-4,7-bis(dimethylamino)-1,8,10a,11-tetrahydroxy-10,12-dioxo-5,5a,6,6a,7,10,10a,12-octahydrotetracen-2-yl]amino}-2-oxoethyl)(butyl)amino]carbonyl}oxy)methyl phenylacetate] was run?
Answer: 1 µg/mL (≈ 1.29 µM)

Question: What about the MIC (E. coli GC 2236; Water pre-incubation) of the same compound?
Answer: 16 µg/mL (≈ 20.6 µM)

Question: And the MIC (E. coli GC 2233; Mouse Serum pre-incubation)?
Answer: 1 µg/mL (≈ 1.29 µM)

Question: And the MIC (E. coli GC 2233; Water pre-incubation)?
Answer: 32 µg/mL (≈ 41.1 µM)

Question: What about the MIC (E. coli GC 2234; Mouse Serum pre-incubation) of the same compound?
Answer: 1 µg/mL (≈ 1.29 µM)

Question: And the MIC (E. coli GC 2234; Water pre-incubation)?
Answer: 16 µg/mL (≈ 20.6 µM)

Question: What about the MIC (E. coli GC 2272; Mouse Serum pre-incubation) of the same compound?
Answer: 1 µg/mL (≈ 1.29 µM)

Question: And the MIC (E. coli GC 2272; Water pre-incubation)?
Answer: 16 µg/mL (≈ 20.6 µM)

Question: And the MIC (E. coli GC 6465; Mouse Serum pre-incubation)?
Answer: 8 µg/mL (≈ 10.3 µM)

Question: What about the MIC (E. coli GC 6465; Water pre-incubation) of the same compound?
Answer: > 64 µg/mL

Question: And the MIC (E. coli GC 1073; Mouse Serum pre-incubation)?
Answer: 1 µg/mL (≈ 1.29 µM)

Question: And the MIC (E. coli GC 1073; Water pre-incubation)?
Answer: 64 µg/mL (≈ 82.3 µM)

Question: What about the MIC (S. aureus GC 1131; Mouse Serum pre-incubation) of the same compound?
Answer: 1 µg/mL (≈ 1.29 µM)

Question: What about the MIC (S. aureus GC 1131; Water pre-incubation) of the same compound?
Answer: 2 µg/mL (≈ 2.57 µM)

Question: And the MIC (S. aureus GC 6466; Mouse Serum pre-incubation)?
Answer: 0.5 µg/mL (≈ 0.643 µM)

Question: And the MIC (S. aureus GC 6466; Water pre-incubation)?
Answer: 1 µg/mL (≈ 1.29 µM)

Question: What about the MIC (S. aureus GC 1079; Mouse Serum pre-incubation) of the same compound?
Answer: 2 µg/mL (≈ 2.57 µM)

Question: What about the MIC (S. aureus GC 1079; Water pre-incubation) of the same compound?
Answer: 8 µg/mL (≈ 10.3 µM)

Question: And the MIC (S. aureus GC 4536; Mouse Serum pre-incubation)?
Answer: 1 µg/mL (≈ 1.29 µM)

Question: And the MIC (S. aureus GC 4536; Water pre-incubation)?
Answer: 2 µg/mL (≈ 2.57 µM)

Question: And the MIC (S. aureus GC 6469; Mouse Serum pre-incubation)?
Answer: 4 µg/mL (≈ 5.14 µM)

Question: What about the MIC (S. aureus GC 6469; Water pre-incubation) of the same compound?
Answer: 16 µg/mL (≈ 20.6 µM)

Question: What about the MIC (S. epidermidis GC 4935; Mouse Serum pre-incubation) of the same compound?
Answer: 4 µg/mL (≈ 5.14 µM)

Question: What about the MIC (S. epidermidis GC 4935; Water pre-incubation) of the same compound?
Answer: 8 µg/mL (≈ 10.3 µM)

Question: And the MIC (E. faecalis GC 4555; Mouse Serum pre-incubation)?
Answer: 0.5 µg/mL (≈ 0.643 µM)

Question: And the MIC (E. faecalis GC 4555; Water pre-incubation)?
Answer: 4 µg/mL (≈ 5.14 µM)

Question: What about the MIC (E. faecalis GC 2265; Mouse Serum pre-incubation) of the same compound?
Answer: 2 µg/mL (≈ 2.57 µM)

Question: And the MIC (E. faecalis GC 2265; Water pre-incubation)?
Answer: 8 µg/mL (≈ 10.3 µM)

Question: And the MIC (E. faecium GC 2243; Mouse Serum pre-incubation)?
Answer: 0.5 µg/mL (≈ 0.643 µM)

Question: And the MIC (E. faecium GC 2243; Water pre-incubation)?
Answer: 4 µg/mL (≈ 5.14 µM)

Question: What about the MIC (S. pneumoniae+ GC 4465; Mouse Serum pre-incubation) of the same compound?
Answer: 4 µg/mL (≈ 5.14 µM)

Question: And the MIC (S. pneumoniae+ GC 4465; Water pre-incubation)?
Answer: 8 µg/mL (≈ 10.3 µM)

Question: And the MIC (S. pyogenes GC 4563; Mouse Serum pre-incubation)?
Answer: 0.12 µg/mL (≈ 0.154 µM)

Question: What about the MIC (S. pyogenes GC 4563; Water pre-incubation) of the same compound?
Answer: 0.25 µg/mL (≈ 0.321 µM)

Question: And the MIC (c. albicans GC 3066; Candida albicans, GC3066)?
Answer: > 64 µg/mL

Question: What about the MIC (c. albicans GC 3066; [1]) of the same compound?
Answer: >64 UG/ML

Question: And the MIC (E. coli; [2])?
Answer: 0.5 to 2 µg/mL (≈ 0.643 to 2.57 µM)

Question: And the MIC (E. coli; [3])?
Answer: 0.5 to 2 µg/mL (≈ 0.643 to 2.57 µM)

Question: What about the MIC (E. coli; [4]) of the same compound?
Answer: 16 to 64 µg/mL (≈ 20.6 to 82.3 µM)

Question: What about the MIC (E. coli; [5]) of the same compound?
Answer: 16 to 64 µg/mL (≈ 20.6 to 82.3 µM)

Question: What about the MIC (Staph.; [6]) of the same compound?
Answer: 0.5 to 4 µg/mL (≈ 0.643 to 5.14 µM)

Question: What about the MIC (Staph.; [7]) of the same compound?
Answer: 1 to 16 µg/mL (≈ 1.29 to 20.6 µM)

Question: What about the MIC (Staph.; [8]) of the same compound?
Answer: 0.5 to 4 µg/mL (≈ 0.643 to 5.14 µM)

Question: And the MIC (Staph.; [9])?
Answer: 1 to 16 µg/mL (≈ 1.29 to 20.6 µM)

Question: Which results are given for `CCCCN(CC(=O)Nc1cc(N(C)C)c2c(c1O)C(=O)C1=C(O)[C@]3(O)C(=O)C(C(N)=O)=C(O)[C@@H](N(C)C)[C@@H]3C[C@@H]1C2)C(=O)OCOC(=O)C(C)(C)C` [Example 13, ({[(2-{[(5aR,6aS,7S,10aS)-9-(aminocarbonyl)-4,7-bis(dimethylamino)-1,8,10a,11-tetrahydroxy-10,12-dioxo-5,5a,6,6a,7,10,10a,12-octahydrotetracen-2-yl]amino}-2-oxoethyl)(butyl)amino]carbonyl}oxy)methyl pivalate]?
Answer: MIC (E. coli GC 2236; Mouse Serum pre-incubation): 2 µg/mL (≈ 2.69 µM); MIC (E. coli GC 2236; Water pre-incubation): 8 µg/mL (≈ 10.8 µM); MIC (E. coli GC 2233; Mouse Serum pre-incubation): 2 µg/mL (≈ 2.69 µM); MIC (E. coli GC 2233; Water pre-incubation): 8 µg/mL (≈ 10.8 µM); MIC (E. coli GC 2234; Mouse Serum pre-incubation): 1 µg/mL (≈ 1.34 µM); MIC (E. coli GC 2234; Water pre-incubation): 8 µg/mL (≈ 10.8 µM); MIC (E. coli GC 2272; Mouse Serum pre-incubation): 2 µg/mL (≈ 2.69 µM); MIC (E. coli GC 2272; Water pre-incubation): 8 µg/mL (≈ 10.8 µM); MIC (E. coli GC 6465; Mouse Serum pre-incubation): 8 µg/mL (≈ 10.8 µM); MIC (E. coli GC 6465; Water pre-incubation): > 64 µg/mL; MIC (E. coli GC 1073; Mouse Serum pre-incubation): 2 µg/mL (≈ 2.69 µM); MIC (E. coli GC 1073; Water pre-incubation): 16 µg/mL (≈ 21.5 µM); MIC (S. aureus GC 1131; Mouse Serum pre-incubation): 2 µg/mL (≈ 2.69 µM); MIC (S. aureus GC 1131; Water pre-incubation): 2 µg/mL (≈ 2.69 µM); MIC (S. aureus GC 6466; Mouse Serum pre-incubation): 1 µg/mL (≈ 1.34 µM); MIC (S. aureus GC 6466; Water pre-incubation): 2 µg/mL (≈ 2.69 µM); MIC (S. aureus GC 1079; Mouse Serum pre-incubation): 4 µg/mL (≈ 5.38 µM); MIC (S. aureus GC 1079; Water pre-incubation): 4 µg/mL (≈ 5.38 µM); MIC (S. aureus GC 4536; Mouse Serum pre-incubation): 1 µg/mL (≈ 1.34 µM); MIC (S. aureus GC 4536; Water pre-incubation): 2 µg/mL (≈ 2.69 µM); MIC (S. aureus GC 6469; Mouse Serum pre-incubation): 4 µg/mL (≈ 5.38 µM); MIC (S. aureus GC 6469; Water pre-incubation): 8 µg/mL (≈ 10.8 µM); MIC (S. epidermidis GC 4935; Mouse Serum pre-incubation): 4 µg/mL (≈ 5.38 µM); MIC (S. epidermidis GC 4935; Water pre-incubation): 8 µg/mL (≈ 10.8 µM); MIC (E. faecalis GC 4555; Mouse Serum pre-incubation): 2 µg/mL (≈ 2.69 µM); MIC (E. faecalis GC 4555; Water pre-incubation): 4 µg/mL (≈ 5.38 µM); MIC (E. faecalis GC 2265; Mouse Serum pre-incubation): 4 µg/mL (≈ 5.38 µM); MIC (E. faecalis GC 2265; Water pre-incubation): 8 µg/mL (≈ 10.8 µM); MIC (E. faecium GC 2243; Mouse Serum pre-incubation): 2 µg/mL (≈ 2.69 µM); MIC (E. faecium GC 2243; Water pre-incubation): 4 µg/mL (≈ 5.38 µM); MIC (S. pneumoniae+ GC 4465; Mouse Serum pre-incubation): 8 µg/mL (≈ 10.8 µM); MIC (S. pneumoniae+ GC 4465; Water pre-incubation): 8 µg/mL (≈ 10.8 µM); MIC (S. pyogenes GC 4563; Mouse Serum pre-incubation): 0.5 µg/mL (≈ 0.672 µM); MIC (S. pyogenes GC 4563; Water pre-incubation): 1 µg/mL (≈ 1.34 µM); MIC (c. albicans GC 3066; Candida albicans, GC3066): > 64 µg/mL; MIC (c. albicans GC 3066; [1]): >64 UG/ML; MIC (E. coli; [2]): 1 to 4 µg/mL (≈ 1.34 to 5.38 µM); MIC (E. coli; [3]): 1 to 4 µg/mL (≈ 1.34 to 5.38 µM); MIC (E. coli; [4]): 8 to 16 µg/mL (≈ 10.8 to 21.5 µM); MIC (E. coli; [5]): 8 to 16 µg/mL (≈ 10.8 to 21.5 µM); MIC (Staph.; [6]): 1 to 4 µg/mL (≈ 1.34 to 5.38 µM); MIC (Staph.; [7]): 2 to 8 µg/mL (≈ 2.69 to 10.8 µM); MIC (Staph.; [8]): 1 to 4 µg/mL (≈ 1.34 to 5.38 µM); MIC (Staph.; [9]): 2 to 8 µg/mL (≈ 2.69 to 10.8 µM)
